Among the data in patent publication US12264134B2 (Merck Sharp & Dohme LLC, priority 2018, dated 2025) are IC50 values, retold here.

Some results are limits rather than exact numbers.

In general, IC50 refers to the point on the concentration scale where inhibition reaches its midpoint.

In this experiment the target is IDO1 (Homo sapiens, UniProt P14902). The experiment is described as follows: IDO1 Cellular Assay in HeLa Cells Stimulated with IFNγ. Format: cell-based. The note with it: read-out: HeLa Cell Potency, IC50.
IDO1, sequence (P14902 whole entry): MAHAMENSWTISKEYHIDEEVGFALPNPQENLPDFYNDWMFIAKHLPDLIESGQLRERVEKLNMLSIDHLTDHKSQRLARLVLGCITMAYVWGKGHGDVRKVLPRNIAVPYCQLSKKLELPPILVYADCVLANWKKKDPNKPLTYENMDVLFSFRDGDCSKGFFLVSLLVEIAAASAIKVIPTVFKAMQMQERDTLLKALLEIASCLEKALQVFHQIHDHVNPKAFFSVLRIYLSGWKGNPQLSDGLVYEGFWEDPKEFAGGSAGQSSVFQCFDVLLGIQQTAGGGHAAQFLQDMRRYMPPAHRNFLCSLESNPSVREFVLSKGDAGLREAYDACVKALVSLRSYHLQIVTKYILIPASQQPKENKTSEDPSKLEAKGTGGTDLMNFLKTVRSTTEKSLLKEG
On to `Cc1cccc(N2CCN(C(=O)Cn3nc(C(=O)N4CCOCC4CO)c4c3C[C@H]3C[C@@H]43)CC2)c1C` (stereo partly drawn) [Example 274, 1-[4-(2,3-dimethylphenyl)piperazin-1-yl]-2-{(3bR,4aR)-3-[3-(hydroxymethyl)morpholine-4-carbonyl]-3b,4,4a,5-tetrahydro-1H-cyclopropa[3,4]cyclopenta[1,2-c]pyrazol-1-yl}ethan-1-one], for which the IC50 turned out to be 6.37 nM.
For `Cc1cccc(N2CCN(C(=O)Cn3nc(C(=O)N4CCC5(CC4)COC(CO)C5)c4c3C[C@H]3C[C@@H]43)CC2)c1C` (stereo partly drawn) [Example 275, 1-[4-(2,3-dimethylphenyl)piperazin-1-yl]-2-{(3bR,4aR)-3-[3-(hydroxymethyl)-2-oxa-8-azaspiro[4.5]decane-8-carbonyl]-3b,4,4a,5-tetrahydro-1H-cyclopropa[3,4]cyclopenta[1,2-c]pyrazol-1-yl}ethan-1-one] the value was 0.8 nM.
Take `Cc1cccc(N2CCN(C(=O)Cn3nc(C(=O)N4CCC(OCCO)CC4)c4c3C[C@H]3C[C@@H]43)CC2)c1C` [Example 277, 1-[4-(2,3-dimethylphenyl)piperazin-1-yl]-2-{(3bR,4aR)-3-[4-(2-hydroxyethoxy)piperidine-1-carbonyl]-3b,4,4a,5-tetrahydro-1H-cyclopropa[3,4]cyclopenta[1,2-c]pyrazol-1-yl}ethan-1-one]: the IC50 is less than 0.51 nM.
The figure for `Cc1cccc(N2CCN(C(=O)Cn3nc(C(=O)N4CC[C@H](O)[C@@H](C)C4)c4c3C[C@H]3C[C@@H]43)CC2)c1C` [Example 282, 1-[4-(2,3-dimethylphenyl)piperazin-1-yl]-2-{(3bR,4aR)-3-[(3S,4S)-4-hydroxy-3-methylpiperidine-1-carbonyl]-3b,4,4a,5-tetrahydro-1H-cyclopropa[3,4]cyclopenta[1,2-c]pyrazol-1-yl}ethan-1-one] is 0.97 nM; for `Cc1cccc(N2CCN(C(=O)Cn3nc(C(=O)N4CCN(C(=O)CO)CC4)c4c3CC3CC43)CC2)c1C` (centres unmarked) [Example 287, 1-[4-(2,3-dimethylphenyl)piperazin-1-yl]-2-{3-[4-(hydroxyacetyl)piperazine-1-carbonyl]-3b,4,4a,5-tetrahydro-1H-cyclopropa[3,4]cyclopenta[1,2-c]pyrazol-1-yl}ethan-1-one] it is 1.64 nM; for `Cc1cccc(N2CCN(C(=O)Cn3nc(C(=O)N4C[C@H](O)C[C@H]4C)c4c3C[C@H]3C[C@@H]43)CC2)c1C` [Example 292, 1-[4-(2,3-dimethylphenyl)piperazin-1-yl]-2-{(3bR,4aR)-3-[(2R,4R)-4-hydroxy-2-methylpyrrolidine-1-carbonyl]-3b,4,4a,5-tetrahydro-1H-cyclopropa[3,4]cyclopenta[1,2-c]pyrazol-1-yl}ethan-1-one] it is 3.7 nM.
As to `Cc1cccc(N2CCN(C(=O)Cn3nc(C(=O)N4C[C@@H](C)O[C@@H](C)C4)c4c3CC[C@@H](C(F)(F)F)C4)CC2)c1C` [Example 295, 2-[(5R)-3-[(2R,6S)-2,6-dimethylmorpholine-4-carbonyl]-5-(trifluoromethyl)-4,5,6,7-tetrahydro-1H-indazol-1-yl]-1-[4-(2,3-dimethylphenyl)piperazin-1-yl]ethan-1-one], the IC50 was determined as 6.69 nM.
For `Cc1cccc(N2CCN(C(=O)Cn3nc(C(=O)N4CC[C@@H](O)[C@@H](F)C4)c4c3C[C@@H]3C[C@H]43)CC2)c1C` [Example 298, 1-[4-(2,3-dimethylphenyl)piperazin-1-yl]-2-{(3bS,4aS)-3-[(3S,4R)-3-fluoro-4-hydroxypiperidine-1-carbonyl]-3b,4,4a,5-tetrahydro-1H-cyclopropa[3,4]cyclopenta[1,2-c]pyrazol-1-yl}ethan-1-one] the value was 14.3 nM; for `Cc1cccc(N2CCN(C(=O)Cn3nc(C(=O)N4C[C@@H](C)O[C@@H](C)C4)c4c3C[C@@H]3C[C@H]43)CC2)c1C` [Example 299, 2-{(3bS,4aS)-3-[(2R,6S)-2,6-dimethylmorpholine-4-carbonyl]-3b,4,4a,5-tetrahydro-1H-cyclopropa[3,4]cyclopenta[1,2-c]pyrazol-1-yl}-1-[4-(2,3-dimethylphenyl)piperazin-1-yl]ethan-1-one], 15.1 nM; for `Cc1cccc(N2CCN(C(=O)Cn3nc(C(=O)N4CCC(F)(CO)C4)c4c3CCC4)CC2)c1C` (centres unmarked) [Example 300, 1-[4-(2,3-dimethylphenyl)piperazin-1-yl]-2-{3-[3-fluoro-3-(hydroxymethyl)pyrrolidine-1-carbonyl]-5,6-dihydrocyclopenta[c]pyrazol-1(4H)-yl}ethan-1-one], 16.9 nM.
With `Cc1cccc(N2CCN(C(=O)Cn3nc(C(=O)N4CC5(CO)CC4C5)c4c3CCC4)CC2)c1C` [Example 301, 1-[4-(2,3-dimethylphenyl)piperazin-1-yl]-2-{3-[4-(hydroxymethyl)-2-azabicyclo[2.1.1]hexane-2-carbonyl]-5,6-dihydrocyclopenta[c]pyrazol-1(4H)-yl}ethan-1-one], the IC50 is 17.1 nM.
With `Cc1cccc(N2CCN(C(=O)Cn3nc(C(=O)N4C[C@@H](C)O[C@@H](C)C4)c4c3CC[C@H](C(F)(F)F)C4)CC2)c1C` [Example 302, 2-[(5S)-3-[(2R,6S)-2,6-dimethylmorpholine-4-carbonyl]-5-(trifluoromethyl)-4,5,6,7-tetrahydro-1H-indazol-1-yl]-1-[4-(2,3-dimethylphenyl)piperazin-1-yl]ethan-1-one], the IC50 came to 24.9 nM.
For `Cc1cccc(N2CCN(C(=O)Cn3nc(C(=O)N4C[C@@H](C)O[C@@H](C)C4)c4c3CCC(C(F)(F)F)C4)CC2)c1C` (stereo partly drawn) [Example 303, 2-{3-[(2R,6S)-2,6-dimethylmorpholine-4-carbonyl]-5-(trifluoromethyl)-4,5,6,7-tetrahydro-1H-indazol-1-yl}-1-[4-(2,3-dimethylphenyl)piperazin-1-yl]ethan-1-one] the value was 29.9 nM; for `Cc1cccc(N2CCN(C(=O)Cn3nc(C(=O)N4CC[C@@H](O)[C@@H](F)C4)c4c3CCC3(C4)CC3(F)F)CC2)c1C` (stereo partly drawn) [Example 304, 2-{2,2-difluoro-3′-[(3S,4R)-3-fluoro-4-hydroxypiperidine-1-carbonyl]-6′,7′-dihydrospiro[cyclopropane-1,5-indazol]-1′(′4H)-yl}-1-[4-(2,3-dimethylphenyl)piperazin-1-yl]ethan-1-one], 30.2 nM; for `Cc1cccc(N2CCN(C(=O)Cn3nc(C(=O)N4CC5(CC(O)C5)C4)c4c3CCC4)CC2)c1C` [Example 305, 1-[4-(2,3-dimethylphenyl)piperazin-1-yl]-2-[3-(6-hydroxy-2-azaspiro[3.3]heptane-2-carbonyl)-5,6-dihydrocyclopenta[c]pyrazol-1(4H)-yl]ethan-1-one], 48 nM.
The figure for `Cc1cccc(N2CCN(C(=O)Cn3nc(C(=O)N4CC5CC(C4)C5O)c4c3CCC4)CC2)c1C` (centres unmarked) [Example 306, 1-[4-(2,3-dimethylphenyl)piperazin-1-yl]-2-[3-(6-hydroxy-3-azabicyclo[3.1.1]heptane-3-carbonyl)-5,6-dihydrocyclopenta[c]pyrazol-1(4H)-yl]ethan-1-one] is 55.4 nM; for `Cc1cccc(N2CCN(C(=O)Cn3nc(C(=O)N4CC[C@H](O)[C@H](F)C4)c4c3C[C@@H]3C[C@H]43)CC2)c1C` [Example 307, 1-[4-(2,3-dimethylphenyl)piperazin-1-yl]-2-{(3bS,4aS)-3-[(3R,4S)-3-fluoro-4-hydroxypiperidine-1-carbonyl]-3b,4,4a,5-tetrahydro-1H-cyclopropa[3,4]cyclopenta[1,2-c]pyrazol-1-yl}ethan-1-one] it is 71.4 nM.
